Measured values: paper PMC9822072, “Synthesis and Structure–Activity Relationship of 2,6-Disubstituted Thiosemicarbazone Derivatives of Pyridine as Potential Antituberculosis Agents” (Materials, 2023)
Converted amounts (≈) assume the structure as drawn.

What follows are compounds tested on M. tuberculosis Spec. 210 (resistant strain isolated from TB patients) (assay: Tuberculostatic activity, twofold serial microdilution with Alamar Blue). Settings: Mycobacterium tuberculosis, 504 h, read-out: MIC Spec. 210.
Assay type: cell-based

In order of falling MIC:
1. NNC(=O)c1ccncc1 [INH, isoniazid, reference compound]  8 µg/mL (≈ 58.3 µM)
2. NC(=NNC(=S)N1CCOCC1)c1cccc(Oc2ccccc2)n1 [Compound 8, N’-(Morpholine-4-Carbonothioyl)-6-Phenoxypicolinohydrazonamide]  4 µg/mL (≈ 11.2 µM)
3. NC(=NNC(=S)N1CCCC1)c1cccc(Oc2ccccc2)n1 [Compound 9, 6-Phenoxy-N’-(Pyrrolidine-1-Carbonothioyl)Picolinohydrazonamide]  4 µg/mL (≈ 11.7 µM)
4. NC(=NNC(=S)N1CCOCC1)c1cccc(N2CCCC2)n1 [Compound 4, N’-(Morpholine-4-Carbonothioyl)-6-(Pyrrolidin-1-Yl)Picolinohydrazonamide]  4 µg/mL (≈ 12 µM)
5. NC(=NNC(=S)N1CCOCC1)c1cccc(N2CCCCC2)n1 [Compound 6, N’-(Morpholine-4-Carbonothioyl)-6-(Piperidin-1-Yl)Picolinohydrazonamide]  1 µg/mL (≈ 2.87 µM)
6. NC(=NNC(=S)N1CCCC1)c1cccc(N2CCCC2)n1 [Compound 5, 6-(Pyrrolidin-1-Yl)-N’-(Pyrrolidine-1-Carbonothioyl)Picolinohydrazonamide]  1 µg/mL (≈ 3.14 µM)
7. NC(=NNC(=S)N1CCCC1)c1cccc(N2CCCCC2)n1 [Compound 7, 6-(Piperidin-1-Yl)-N’-(Pyrrolidine-1-Carbonothioyl)Picolinohydrazonamide]  0.5 µg/mL (≈ 1.5 µM)
